The subject of test [1] is JJ5 Breast Cancer cells. As to the kind of experiment: Growth inhibition assay of EGF-111In-labeled transferrin composition against JJ5 breast cancer cells. The format is cell-based, human. The note with it: 3.5 pCi/cell, cultured 4 days. The protocol:
JJ5 breast cancer cells (prepared from BCBM JJ5) expressing approximately 10^6 epidermal growth factor receptors/cell were incubated with EGF-^111In-labeled transferrin composition, unlabeled hEGF or ^111In-oxine, centrifuged to remove free ligand, then assayed and seeded ([…]) into 35 mm culture dishes. Growth medium was added and the cells were cultured at 37° C./5% CO^2 for 4 days. The cells were then recovered by trypsinization and counted in a hemocytometer. Control dishes contained cells cultured in growth medium containing ^111In-DTPA or growth medium alone.

Test [2] deals with JJ5 Breast Cancer cells. To be noted: in vitro.
Description: The EGF-^111In-labeled transferrin (0.25-80 ng) was incubated with 1.5×10^6 cells/dish JJ5 Breast Cancer (prepared from BCBM JJ5) cells in 1 mL of 0.1% human serum albumin in 35 mm multiwell culture dishes at 37° C. for 30 minutes. The cells were transferred to a centrifuge tube and centrifuged. The cell pellet was separated from the supernatant and counted in a g-scintillation counter to determine bound (B) and free (F) radioactivity. Non-specific binding was determined by conducting the assay in 100 nM hEGF. […] Internalized fraction was measured by determining the proportion of radioactivity which could not be displaced from the cell surface by 100 nM hEGF. Cell-associated binding (surface-binding and intracellular accumulation) was expressed as a percentage of medium radioactivity bound per mg of cell study protein.

The source of these data is patent US20040220121A1, “Methods for drug delivery” (priority 2003, published 2004).

As for `[In+3].[O-]c1cccc2cccnc12.[O-]c1cccc2cccnc12.[O-]c1cccc2cccnc12` [^111In-oxine], in the test with JJ5 Breast Cancer cells [1], the “growth inhibition of the JJ5 cells” value is 91%.

On to “EGF-^111In-labeled transferrin composition: human EGF linked via PEG3400-biotin or peptide linker to streptavidin-transferrin, transferrin labeled with 111In”, for which the “retained by the breast cancer cells” value with JJ5 Breast Cancer cells [2] (37° C.) is given as “at least 24 hours”. The “111In radioactivity lost from the cells” value with JJ5 Breast Cancer cells [2] (over a 24 hour period at 37° C.) is recorded as below 8%.
